CCOc1ccc2ccccc2c1C(=O)N[C@@H]1C(=O)N2[C@@H]1SC(C)(C)[C@@H]2C(=O)[O-].[Na+]
solubility (mole fraction)
Conditions	278.15 K	283.15 K	288.15 K	293.15 K	298.15 K	303.15 K	308.15 K	313.15 K	318.15 K
in acetone	4.88e-05	7.1e-05	0.000106	0.000158	0.000202	0.000255	0.000309	0.000353	0.000401
in acetonitrile	2.25e-05	2.97e-05	4.09e-05	6.27e-05	7.46e-05	9.3e-05	0.000111	0.000128	0.000144
in ethanol	0.000161	0.000201	0.000246	0.00032	0.000372	0.000442	0.000509	0.000562	0.000615
in isopropanol	0.000155	0.000177	0.000201	0.000229	0.000261	0.000297	0.000337	0.000367	0.000395
in methanol	0.000605	0.000803	0.00101	0.00121	0.00149	0.00173	0.002	0.00226	0.00251
in n-butyl acetate	2.14e-05	3.21e-05	4.3e-05	5.85e-05	7.24e-05	8.6e-05	9.63e-05	0.000108	0.000117

Reference: BigSolDB 2.1
